Values after ≈ are worked out from the molar mass of the structure shown.
What follows are compounds tested against T1, CsnOU01 (GH family 46 chitosanase) (Microbacterium sp. OU01, UniProt A7KBW5) (assay: equilibrium adsorption to ligand-coupled Sepharose 6B, Scatchard analysis). Conditions: compound immobilised on Sepharose 6B via cyanuric chloride spacer (not the free sugar); Kd in mass concentration of enzyme; 20 mM Tris-HCl, pH 8.0.
T1 construct: about 28 kDa
T1 sequence (A7KBW5 26-266): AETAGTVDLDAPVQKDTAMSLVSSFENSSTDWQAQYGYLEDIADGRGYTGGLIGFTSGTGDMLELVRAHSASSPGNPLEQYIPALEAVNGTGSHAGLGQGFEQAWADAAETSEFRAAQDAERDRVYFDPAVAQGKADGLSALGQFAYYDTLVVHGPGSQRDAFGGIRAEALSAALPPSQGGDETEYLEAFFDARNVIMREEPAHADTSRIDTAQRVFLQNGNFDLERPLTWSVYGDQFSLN
Type: binding
Source text: equilibrium adsorption to ligand-coupled Sepharose 6B, Scatchard analysis on CsnOU01 (GH family 46 chitosanase)

Row | Compound | Kd
1 | N[C@H]1[C@H](O[C@H]2[C@H](O)[C@@H](N)C(O)O[C@@H]2CO)O[C@H](CO)[C@@H](O)[C@@H]1O (stereo partly drawn) [CHDS, chitodisaccharide] | 16.4 µg/mL (≈ 48.2 µM)
2 | chitotrisaccharide [CHTS] | 20.7 µg/mL
3 | glucosamine | 88.5 µg/mL
